Results from PubChem BioAssay (NCI).
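Cells were grown in 96-well plates and exposed to each compound for 48 hours at five concentrations; endpoints were interpolated linearly between bracketing concentrations, or set to the highest concentration if not reached. GI50 is the concentration that inhibits growth by half. Definition used: TGI = concentration required for complete inhibition of growth.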

Experiments:
Assay in all cases: DTP human tumour cell line panel, 48 h
[1] = test system: RPMI-8226 leukemia
[2] = test system: HL-60(TB) leukemia
[3] = test system: HOP-92 NSCLC
[4] = test system: UACC-257 melanoma
[5] = test system: NCI-H460 lung
[6] = test system: MDA-MB-435
[7] = test system: DU-145 prostate
[8] = test system: SK-MEL-2 melanoma
[9] = test system: SNB-75 CNS
[10] = test system: HCT-15 colon
[11] = test system: NCI-H226 lung
[12] = test system: SF-539 CNS
[13] = test system: NCI-H522 lung
[14] = test system: NCI/ADR-RES ovarian
[15] = test system: NCI-H23 lung
[16] = test system: BT-549 breast
[17] = test system: SN12C renal

| SMILES | TGI [1] [µM] | TGI [2] [µM] | TGI [3] [µM] | TGI [4] [µM] | TGI [5] [µM] | TGI [6] [µM] | TGI [7] [µM] | TGI [8] [µM] | TGI [9] [µM] | TGI [10] [µM] | TGI [11] [µM] | TGI [12] [µM] | TGI [13] [µM] | TGI [14] [µM] | TGI [15] [µM] | TGI [16] [µM] | TGI [17] [µM] | GI50 [1] [µM] | GI50 [2] [µM] | GI50 [5] [µM] |
| --- | --- | --- | --- | --- | --- | --- | --- | --- | --- | --- | --- | --- | --- | --- | --- | --- | --- | --- | --- | --- |
| CCC(=O)COc1ccc(NC(NC(=O)C(C(F)(F)F)C(F)(F)F)(C(F)(F)F)C(F)(F)F)cc1 | 52.8 | 56.1 | > 100 | > 100 | > 100 | > 100 | > 100 | 95.5 | 75.3 | > 100 | 47.6 | 55.2 | 35.5 | 42.7 | > 100 | – | – | – | – | – |
| S=C(Nc1cccc(Cl)c1)Nc1ccccn1 | > 100 | > 100 | – | > 100 | > 100 | > 100 | > 100 | > 100 | > 100 | > 100 | > 100 | > 100 | – | > 100 | – | > 100 | > 100 | – | – | – |
| O=C1CCCC2=C1CC1=C(CCCC1=O)N2c1cccc2ccccc12 | > 100 | > 100 | > 100 | – | > 100 | – | – | – | > 100 | > 100 | > 100 | > 100 | – | > 100 | > 100 | > 100 | > 100 | – | – | – |
| C=CCOCn1ccc(=O)[nH]c1=O | > 100 | > 100 | – | > 100 | > 100 | > 100 | > 100 | – | > 100 | > 100 | > 100 | > 100 | > 100 | – | > 100 | > 100 | > 100 | – | – | – |
| CC1NC(/C(=C/c2ccccc2O)NC(=O)c2ccccc2)OC1=O (configuration not stated) | > 50 | > 50 | 46.6 | > 50 | – | > 50 | – | > 50 | > 50 | > 50 | > 50 | 48 | > 50 | > 50 | > 50 | > 50 | > 50 | – | – | – |
| COc1ccc(CN(CCc2c[nH]c3ccccc23)Cc2ccc(OC)cc2)cc1 | > 41.9 | – | 9.85 | 14.3 | > 61.7 | 11.7 | 32.9 | 8.29 | 15.1 | > 100 | 2.95 | 3.14 | 8.77 | 9.79 | 10.5 | 11.4 | 2.24 | – | – | – |
| N#CS/C(Cl)=C(/C(Cl)=C(Cl)Cl)[N+](=O)[O-] | – | > 100 | – | > 100 | > 100 | – | > 100 | – | > 100 | 45.9 | > 100 | > 100 | – | 98.1 | > 100 | > 100 | > 100 | – | – | – |
| CNC(=O)c1n[nH][nH]c1=O | > 100 | > 100 | > 100 | > 100 | – | > 100 | > 100 | > 100 | > 100 | > 100 | > 100 | – | > 100 | > 100 | > 100 | – | > 100 | – | – | – |
| COC1OC(CO)C(O)C(OC(=O)c2cc(O)c(O)c(O)c2)C1OC(=O)c1cc(O)c(O)c(O)c1 (configuration not stated) | > 100 | > 100 | – | > 100 | > 100 | > 100 | > 100 | > 100 | > 100 | > 100 | > 100 | > 100 | > 100 | > 100 | > 100 | > 100 | > 100 | – | – | – |
| CC1(O)/C(=N/O)CC2CC1C2(C)C (configuration not stated) | > 100 | > 100 | > 100 | > 100 | > 100 | > 100 | > 100 | > 100 | > 100 | > 100 | > 100 | – | > 100 | – | > 100 | > 100 | > 100 | – | – | – |
| CC1N(C)C(=O)OC12CCN(CCCC(=O)c1ccc(F)cc1)CC2 (configuration not stated) | > 100 | > 100 | – | > 100 | > 100 | > 100 | > 100 | > 100 | > 100 | > 100 | > 100 | > 100 | > 100 | > 100 | > 100 | > 100 | > 100 | – | – | – |
| OC1CC(O)c2c(Cl)sc(Cl)c21 (configuration not stated) | – | > 100 | 56.2 | 54.9 | 65.2 | > 100 | > 100 | 49.4 | 49.2 | > 100 | > 100 | > 100 | 56.8 | > 100 | 67.3 | > 100 | > 100 | – | – | – |
| N=C1C(=N)c2ccccc2-c2ccccc21 | > 100 | 0.658 | – | 1.46 | 2.88 | 0.4 | 2.82 | 2.97 | 3.25 | 2.99 | 3.57 | 2.02 | 3.99 | 5 | 1.92 | 2.23 | 2.49 | 1.75 | – | – |
| Cc1cc2c(s1)C(=O)c1sccc1C2=O | > 25.5 | > 100 | 2.97 | 0.385 | 3.23 | 0.318 | 3.23 | 1.33 | 1.18 | 2.52 | 3.37 | 0.622 | 1.38 | 1.64 | 0.36 | – | 1.25 | – | – | – |
| Cc1c2c(n(CCc3ccccc3)c1C)NN=C(C#N)S2(=O)=O | > 100 | – | – | > 100 | > 100 | > 100 | > 100 | > 100 | > 100 | > 100 | – | > 100 | > 100 | > 100 | > 100 | > 100 | > 100 | – | – | – |
| CC1OC(O[C@H]2CC[C@]3(C)[C@H]4CC=C5[C@@H]6[C@@H](C)[C@H](C)CC[C@]6(C(=O)O)CC[C@@]5(C(=O)O)[C@]4(C)CC[C@H]3C2(C)C)C(O)C(O)C1O (some centres not stated) | – | > 75 | > 75 | > 75 | > 75 | > 75 | > 75 | > 75 | > 75 | > 75 | – | > 75 | > 75 | > 75 | > 75 | > 75 | > 75 | – | – | – |
| C=C[C@@]1(C)CC(=O)[C@]2(O)[C@@]3(C)[C@@H](OC(C)=O)CCC(C)(C)[C@@H]3[C@H](OC(C)=O)[C@H](OC(C)=O)[C@@]2(C)O1 | – | – | > 100 | > 100 | > 100 | > 100 | > 100 | > 100 | > 100 | > 100 | > 100 | > 100 | – | > 100 | > 100 | > 100 | > 100 | – | – | – |
| O=[N+]([O-])C(=C(N1CCOCC1)N1CCOCC1)/C(Cl)=C(\Cl)[N+](=O)[O-] | – | – | – | 10.5 | 70.7 | 23.1 | 18 | 32.2 | 34.5 | 8.18 | > 100 | 23.8 | 2.89 | 54.2 | 9.29 | 13.3 | 5.92 | – | – | – |
| Cc1ccccc1N(C)S(=O)(=O)c1ccccc1[N+](=O)[O-] | > 100 | > 100 | – | > 100 | > 100 | > 100 | > 100 | > 100 | > 100 | > 100 | > 100 | > 100 | > 100 | > 100 | > 100 | > 100 | > 100 | – | – | – |
| C=C[C@H]1CN2CCc3c([nH]c4c([C@H]5CCCN5C)c(O)ccc34)[C@@H]2C[C@@H]1C[C@H]1c2[nH]c3ccccc3c2CCN1C | – | 0.564 | 2.82 | 3.54 | 3.53 | 2.83 | 3 | 3.53 | 2.4 | 2.3 | – | – | 3.52 | 3.38 | 3.56 | 3.72 | 3.04 | – | 0.0562 | 1.74 |
| Cc1cc(Cl)ccc1N=NC(=O)NNc1ccc(Cl)cc1C | 89.4 | 45.8 | – | 33.1 | 27.4 | 39.7 | 23.3 | 28 | 33.3 | 25.8 | 36.1 | – | 35.1 | – | 29.8 | 32.2 | 30.1 | – | – | – |
| CN(C)CCO/N=C1/C=C2CC[C@H]3[C@@H]4CC[C@H](O)[C@@]4(C)CC[C@@H]3[C@@]2(C)CC1 | > 74.9 | – | 23 | 30.2 | 21.9 | 12.4 | 45.9 | 37.4 | 10.4 | 47.7 | 8.87 | 13.2 | 13.7 | 17.1 | 33.6 | 8.27 | 32.8 | – | – | – |
| CC(=O)Nc1ccc2c(C)c3c4ccccc4n(C)c3nc2n1 | – | 41.2 | – | 57.5 | 15.5 | 45.7 | 90.4 | 47.6 | > 100 | 48.6 | > 100 | 77.6 | 65.6 | > 100 | 53.4 | 84.8 | 43.3 | – | – | – |
| CC(=O)O[C@H]1C(=O)[C@@]2(C)[C@H]([C@H](OC(=O)C3CCCCC3)[C@]3(O)C[C@H](OC(=O)[C@H](O)[C@@H](NC(=O)C4CCCCC4)C4CCCCC4)C(C)=C1C3(C)C)[C@]1(OC(C)=O)CO[C@@H]1C[C@@H]2O | 3.67 | – | 4.72 | 4.24 | 3.87 | 0.0105 | 2.27 | – | 1.12 | 4.42 | 3.88 | 0.766 | 0.136 | 5.68 | 0.438 | 0.778 | 14.8 | – | – | – |
| O=C(Cc1ccccc1)c1ccc2[nH]c(=O)oc2c1 | 64.4 | > 100 | – | > 100 | > 100 | > 100 | > 100 | > 100 | 33.4 | > 100 | 63.2 | > 100 | – | 79 | > 100 | > 100 | > 100 | – | – | – |
| CC1C[C@]2(C)C(=S)Nc3ccccc3[C@@H]2Nc2ccccc21 (some centres not stated) | > 100 | 77 | 25.2 | 32.5 | 29.6 | 31.2 | 17.5 | 32 | 61 | 50.8 | 36.6 | 34.2 | – | 36.6 | 33.9 | – | 37.5 | – | – | – |
| CC(=O)c1ccc2c(c1)oc(=O)n2CCN1CCCCC1 | > 100 | > 100 | – | > 100 | > 100 | > 100 | > 100 | > 100 | – | > 100 | > 100 | > 100 | – | > 100 | > 100 | > 100 | > 100 | – | – | – |
| O=C1CCCc2cc3c(cc21)CCC3C(=O)O (configuration not stated) | > 100 | > 100 | – | > 100 | > 100 | – | > 100 | > 100 | > 100 | > 100 | > 100 | > 100 | > 100 | > 100 | > 100 | > 100 | > 100 | – | – | – |
| Cc1ccc(S(=O)(=O)NNC(=S)Nc2cccc3ccccc23)cc1 | > 100 | > 100 | 86 | 52.1 | > 100 | > 100 | > 100 | > 100 | 77.5 | > 100 | 95.2 | > 100 | 46.6 | > 100 | > 100 | – | > 100 | – | – | – |
